In patent US9737545B2 (MERCK SHARP & DOHME CORP., priority 2013, dated 2017):

Assays:
HIV-1 (H9IIIB strain) = assay: Antiviral Assays in Cell Culture (Spread), acute infection assay; type: cell-based; conditions: Human immunodeficiency virus 1, T-lymphoid, read-out: Viking 50% (nM)
Description: Antiviral Assays in Cell Culture (“Spread”)
Acute Infection Assay (“Spread”) data were generated using HIV-1 (H9IIIB strain) infection of MT-4 human T-lymphoid cells in 10% FBS, and according to the methods disclosed by J. P. Vacca et al, “L-735,524: An orally bioavailable human immunodeficiency virus type 1 protease inhibitor,” Proc. Natl. Acad. Sci. USA, Vol. 91, pp. 4096-4100 (April 1994).

wildtype HIV-1 protease = target: T1, wildtype HIV-1 protease (Human immunodeficiency virus type 1 group M subtype B, UniProt P04585); assay: Assay for Inhibition of Microbial Expressed HIV Protease (Pepcleav); type: biochemical
T1 construct: preincubated with the HIV-1 protease (wild type) enzyme in assay buffer; made in house; host or cells: Escherichia coli
Method in brief: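 E. coli-expressed wildtype protease (20 pM final) preincubated with inhibitor 30 min at room temperature in 50 mM sodium acetate pH 5.5, 100 mM NaCl, 0.1% BSA. Reaction with 400 μM peptide substrate ran 1 h at 30° C. Inhibition derived from LC-MS/MS (MRM) product peak area.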

Compound	EC50 (HIV-1 (H9IIIB strain))	IC50 (wildtype HIV-1 protease)
Cc1cc2nc([C@@H]3CO[C@H](CCc4c(F)cncc4NC(=O)C[C@@H](c4ccc(F)cc4)c4cc(F)cc(F)c4)CN3)[nH]c2cc1C [Example 64, (3S)-3-(3,5-difluorophenyl)-N-(4-{2-[(2R,5R)-5-(5,6-dimethyl-1H-benzimidazol-2-yl)morpholin-2-yl]ethyl}-5-fluoropyridin-3-yl)-3-(4-fluorophenyl)propanamide]	16 nM	–
O=C(C[C@@H](c1ccc(F)cc1)c1cc(F)cc(F)c1)Nc1cncc(F)c1CC[C@@H]1CN[C@H](c2nc3ccc(Cl)cc3[nH]2)CO1 [Example 65, (3S)—N-(4-{2-[(2R,5R)-5-(6-chloro-1H-benzimidazol-2-yl)morpholin-2-yl]ethyl}-5-fluoropyridin-3-yl)-3-(3,5-difluorophenyl)-3-(4-fluorophenyl)propanamide]	13 nM	–
Cc1ccc2nc([C@@H]3CO[C@H](CCc4c(F)cncc4NC(=O)C[C@@H](c4ccc(F)cc4)c4cc(F)cc(F)c4)CN3)[nH]c2c1 [Example 66, (3S)-3-(3,5-difluorophenyl)-N-(5-fluoro-4-{2-[(2R,5R)-5-(6-methyl-1H-benzimidazol-2-yl)morpholin-2-yl]ethyl}pyridin-3-yl)-3-(4-fluorophenyl)propanamide]	22 nM	–
Cc1cc2nc([C@@H]3CO[C@H](CCc4c(F)cncc4NC(=O)C[C@H](c4cccc(F)c4)c4ccc(Cl)c(F)c4)CN3)[nH]c2cc1C [Example 67, (3R)-3-(4-chloro-3-fluorophenyl)-N-(4-{2-[(2R,5R)-5-(5,6-dimethyl-1H-benzimidazol-2-yl)morpholin-2-yl]ethyl}-5-fluoropyridin-3-yl)-3-(3-fluorophenyl)propanamide]	23 nM	–
Cc1cc2nc([C@@H]3CO[C@H](CCc4c(F)cncc4NC(=O)C[C@H](c4cncc(F)c4)c4ccc(Cl)c(F)c4)CN3)[nH]c2cc1C [Example 68, (3S)-3-(4-chloro-3-fluorophenyl)-N-(4-{2-[(2R,5R)-5-(5,6-dimethyl-1H-benzimidazol-2-yl)morpholin-2-yl]ethyl}-5-fluoropyridin-3-yl)-3-(5-fluoropyridin-3-yl)propanamide]	52 nM	–
Cc1cc2nc([C@@H]3CO[C@H](CCc4c(F)cncc4NC(=O)C[C@H](c4ccccc4)c4ccc(F)cc4)CN3)[nH]c2cc1C [Example 69, (3R)—N-(4-{2-[(2R,5R)-5-(5,6-dimethyl-1H-benzimidazol-2-yl)morpholin-2-yl]ethyl}-5-fluoropyridin-3-yl)-3-(4-fluorophenyl)-3-phenylpropanamide]	80 nM	0.01 nM
